Values quoted from earlier work in patent US20090099261A1, “Omega-3 mixtures” (ISI Brands Inc., priority 2007, published 2009).

Conditions: dietary intake; Michael J. James et al., Am. J. Clin. Nutr. 77:1140-45 (2003)

Row | share of dietary fatty acid converted to EPA [%] | Compound
1 | 40 | CC/C=C\C/C=C\C/C=C\C/C=C\CCCCC(=O)O [SA, stearidonic acid]
2 | ≤ 10 | CC/C=C\C/C=C\C/C=C\CCCCCCCC(=O)O [LNA, Linolenic acid]
